From patent US7109243B2 (IRM LLC, priority 2003, dated 2006)
pKi: −log10 of the molar value.

Legend:
Cathepsin S = Cathepsin S (Homo sapiens, UniProt P25774); assay: Cathepsin S inhibition assay (fluorogenic peptide substrate); format: biochemical; settings: Table II, compounds of Formula I; read-out: Ki Cat. S
In short: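 Ki values come from nonlinear fitting of inhibited hydrolysis rates, taking free and total inhibitor concentrations as equal. Rates measured as rising fluorescence at 380/450 nm after reaction start with 50 μM final acetyl-HPVK-aminocarbamoylcoumarin.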

Cathepsin K = target: T1, Cathepsin K (Homo sapiens, UniProt P43235); assay: Cathepsin K inhibition assay (fluorogenic peptide substrate); selectivity ratio vs cathepsin S; format: biochemical; settings: ratio of cathepsin K inhibition constant to cathepsin S inhibition constant; Table II
T1 sequence (P43235 115-329): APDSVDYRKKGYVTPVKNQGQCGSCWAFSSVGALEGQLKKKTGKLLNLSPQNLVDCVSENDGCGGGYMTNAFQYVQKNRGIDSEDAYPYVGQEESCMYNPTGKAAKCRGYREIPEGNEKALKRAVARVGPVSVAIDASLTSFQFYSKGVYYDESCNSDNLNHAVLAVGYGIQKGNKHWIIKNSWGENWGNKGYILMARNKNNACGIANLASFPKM
In short: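 Inhibition constants for competitive inhibitors come from apparent values fitted to enzyme progress curves. Substrate, acetyl-Lys-His-Pro-Lys-aminocarbamoylcoumarin (40 μM final), starts the reaction; fluorescence rise read at 380 nm excitation, 450 nm emission. Selectivity ratio: other cathepsin constant over cathepsin S constant.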

Sequence of Cathepsin S (P25774 115-331, species assumed): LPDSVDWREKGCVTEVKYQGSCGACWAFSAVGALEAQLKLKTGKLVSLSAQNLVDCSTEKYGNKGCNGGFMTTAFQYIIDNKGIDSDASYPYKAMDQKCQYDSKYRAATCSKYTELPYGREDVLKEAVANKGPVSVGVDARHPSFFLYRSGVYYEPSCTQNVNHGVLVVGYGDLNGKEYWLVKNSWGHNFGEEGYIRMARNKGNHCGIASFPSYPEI

SMILES	pKi (Cathepsin S)	Selectivity for Cat. S over Cat. K (Cathepsin K)
CC(C(=O)N[C@@H](CC1CCCCC1)C(=O)NCCNc1ccc(F)cc1)c1ccc(Cl)cc1 (stereo partly drawn) [Compound 312, 2-(4-Chloro-phenyl)-N-{2-cyclohexyl-1-(S)-[2-(4-fluoro-phenylamino)-ethylcarbamoyl]-ethyl}-propionamide]	> 7.00	++ (++, >100)
COc1ccc(NCCNC(=O)[C@H](Cc2c[nH]c3ccccc23)NC(=O)c2cccc(C)c2)cc1 [Compound 257, (S)-N-{2-(1H-Indol-3-yl)-1-[2-(4-methoxy-phenylamino)-ethylcarbamoyl]-ethyl}-3-methyl-benzamide]	> 7.00	+++ (+++, >1000)
COc1ccc(NCCNC(=O)[C@H](CC2CCCCC2)NC(=O)c2ccc(F)c(C)c2)cc1 [Compound 167, (S)-N-{2-Cyclohexyl-1-[2-(4-methoxy-phenylamino)-ethylcarbamoyl]-ethyl}-4-fluoro-3-methyl-benzamide]	> 7.00	+++ (+++, >1000)
COc1ccc(NCCNC(=O)[C@H](CC2CCCCC2)NC(=O)[C@@H](C)c2ccccc2)cc1 [Compound 192, N-{2-Cyclohexyl-1-(S)-[2-(4-methoxy-phenylamino)-ethylcarbamoyl]-ethyl}-2-(S)-phenyl-propionamide]	> 7.00	+++ (+++, >1000)
O=C(N[C@@H](CC1CCCCC1)C(=O)NCCNc1ccc(F)cc1)C1CC1 [Compound 298, Cyclopropanecarboxylic acid (S)-{2-cyclohexyl-1-[2-(4-fluoro-phenylamino)-ethylcarbamoyl]-ethyl}-amide]	> 7.00	++ (++, >100)
COc1ccc(NCCNC(=O)[C@H](Cc2ccc(Oc3ccc(C)cc3)cc2)NC(=O)c2cccc(C)c2)cc1 [Compound 45, (S)-N-[1-[2-(4-Methoxy-phenylamino)-ethylcarbamoyl]-2-(4-p-tolyloxy-phenyl)-ethyl]-3-methyl-benzamide]	> 7.00	+++ (+++, >1000)
O=C(Cc1ccccc1)N[C@@H](CC1CCCCC1)C(=O)NCCNc1ccc(F)cc1 [Compound 303, 3-Cyclohexyl-N-[2-(4-fluoro-phenylamino)-ethyl]-2-(S)-phenylacetylamino-propionamide]	> 7.00	++ (++, >100)
COc1ccc(NCCNC(=O)[C@H](Cc2cc(F)cc(F)c2)NC(=O)c2cccc(C)c2)cc1 [Compound 230, (S)-N-{2-(3,5-Difluoro-phenyl)-1-[2-(4-methoxy-phenylamino)-ethylcarbamoyl]-ethyl}-3-methyl-benzamide]	> 7.00	+++ (+++, >1000)
COc1ccc(NCCNC(=O)[C@H](CC2CCCCC2)NC(=O)c2cnn(-c3ccc(Cl)cc3)c2C)cc1 [Compound 163, (S)-1-(4-Chloro-phenyl)-5-methyl-1H-pyrazole-4-carboxylic acid {2-cyclohexyl-1-[2-(4-methoxy-phenylamino)-ethylcarbamoyl]-ethyl}-amide]	> 7.00	+ (+, >10)
COc1ccc(NCCNC(=O)[C@H](Cc2ccc(Oc3cccc(Cl)c3)cc2)NC(=O)c2cccc(C)c2)cc1 [Compound 329, (S)-N-{2-[4-(3-Chloro-phenoxy)-phenyl]-1-[2-(4-methoxy-phenylamino)-ethylcarbamoyl]-ethyl}-3-methyl-benzamide]	> 6.00	++ (++, >100)
COc1ccc(NCCNC(=O)[C@H](Cc2ccc(Cl)cc2Cl)NC(=O)c2cccc(C)c2)cc1 [Compound 229, (S)-N-{2-(2,4-Dichloro-phenyl)-1-[2-(4-methoxy-phenylamino)-ethylcarbamoyl]-ethyl}-3-methyl-benzamide]	> 7.00	+++ (+++, >1000)
COc1ccc(NCCNC(=O)[C@H](Cc2ccc(-c3ccccc3C(C)=O)cc2)NC(=O)c2cccc(C)c2)cc1 [Compound 288, (S)-N-{2-(2′-Acetyl-biphenyl-4-yl)-1-[2-(4-methoxy-phenylamino)-ethylcarbamoyl]-ethyl}-3-methyl-benzamide]	> 6.00	++ (++, >100)
COc1ccc(NCCNC(=O)C(NC(=O)c2cccc(C)c2)c2ccc(OC)cc2)cc1 (stereo not drawn) [Compound 211, N-{(4-Methoxy-phenyl)-[2-(4-methoxy-phenylamino)-ethylcarbamoyl]-methyl}-3-methyl-benzamide]	> 6.00	++ (++, >100)
COc1ccc(NCCNC(=O)[C@H](Cc2ccccc2)NC(=O)c2cc(C)c(OCc3ccccc3)c(C)c2)cc1 [Compound 20, (S)-4-Benzyloxy-N-{1-[2-(4-methoxy-phenylamino)-ethylcarbamoyl]-2-phenyl-ethyl}-3,5-dimethyl-benzamide]	> 6.00	++ (++, >100)
COc1ccc(NCCNC(=O)[C@H](CC2CCCCC2)NC(=O)c2cccc(Cl)c2F)cc1 [Compound 155, (S)-3-Chloro-N-{2-cyclohexyl-1-[2-(4-methoxy-phenylamino)-ethylcarbamoyl]-ethyl}-2-fluoro-benzamide]	> 7.00	+++ (+++, >1000)
COc1ccc(NCCNC(=O)[C@H](Cc2ccccc2)NC(=O)NCc2ccc(F)cc2)cc1 [Compound 91, (S)-2-[3-(4-Fluoro-benzyl)-ureido]-N-[2-(4-methoxy-phenylamino)-ethyl]-3-phenyl-propionamide]	> 5.00	+ (+, >10)
O=C(Cc1ccc(Cl)cc1)N[C@@H](CC1CCCCC1)C(=O)NCCNc1ccc(F)cc1 [Compound 305, 2-(S)-[2-(4-Chloro-phenyl)-acetylamino]-3-cyclohexyl-N-[2-(4-fluoro-phenylamino)-ethyl]-propionamide]	> 7.00	++ (++, >100)
CC[C@@H](C(=O)N[C@@H](CC1CCCCC1)C(=O)NCCNc1ccc(F)cc1)c1ccccc1 [Compound 318, N-{2-cyclohexyl-1-(S)-[2-(4-fluoro-phenylamino)-ethylcarbamoyl]-ethyl}-2-(R)-phenyl-butyramide]	> 7.00	+ (+, >10)
COc1ccc(NCCNC(=O)[C@H](CC2CCCCC2)NC(=O)c2cc3cc(F)ccc3[nH]2)cc1 [Compound 113, (S)-5-Fluoro-1H-indole-2-carboxylic acid {2-cyclohexyl-1-[2-(4-methoxy-phenylamino)-ethylcarbamoyl]-ethyl}-amide]	> 7.00	+ (+, >10)
COc1ccc(NCCNC(=O)[C@H](Cc2ccc(Br)cc2)NC(=O)c2cccc(C)c2)cc1 [Compound 241, (S)-N-{2-(4-Bromo-phenyl)-1-[2-(4-methoxy-phenylamino)-ethylcarbamoyl]-ethyl}-3-methyl-benzamide]	> 7.00	+++ (+++, >1000)
O=C(Cc1ccccc1F)N[C@@H](CC1CCCCC1)C(=O)NCCNc1ccc(F)cc1 [Compound 306, 3-Cyclohexyl-2-(S)-[2-(2-fluoro-phenyl)-acetylamino]-N-[2-(4-fluoro-phenylamino)-ethyl]-propionamide]	> 7.00	+++ (+++, >1000)
CC[C@@H](C(=O)N[C@@H](CCC1CCCCC1)C(=O)NCCNc1ccc(OC)cc1)c1ccccc1 [Compound 75, N-{3-Cyclohexyl-1-(S)-[2-(4-methoxy-phenylamino)-ethylcarbamoyl]-propyl}-2-(R)-phenyl-butyramide]	> 7.00	+++ (+++, >1000)
Cc1ccc(-c2ccc(C(=O)N[C@@H](CC3CCCCC3)C(=O)NCCNc3ccc(OC(F)(F)F)cc3)s2)cc1 [Compound 42, 5-p-Tolyl-thiophene-2-carboxylic acid (S)-{2-cyclohexyl-1-[2-(4-trifluoromethoxy-phenylamino)-ethylcarbamoyl]-ethyl}-amide]	> 6.00	+ (+, >10)
O=C(N[C@@H](CC1CCCCC1)C(=O)NCCNc1ccc(F)cc1)c1ccco1 [Compound 264, Furan-2-carboxylic acid (S)-{2-cyclohexyl-1-[2-(4-fluoro-phenylamino)-ethylcarbamoyl]-ethyl}-amide]	> 7.00	++ (++, >100)
COc1ccc(NCCNC(=O)[C@H](CC2CCCCC2)NC(=O)c2cc(F)cc(C(F)(F)F)c2)cc1 [Compound 165, (S)-N-{2-Cyclohexyl-1-[2-(4-methoxy-phenylamino)-ethylcarbamoyl]-ethyl}-3-fluoro-5-trifluoromethyl-benzamide]	> 7.00	+++ (+++, >1000)
Cc1ccccc1CC(=O)N[C@@H](CC1CCCCC1)C(=O)NCCNc1ccc(F)cc1 [Compound 304, 3-Cyclohexyl-N-[2-(4-fluoro-phenylamino)-ethyl]-2-(S)-(2-o-tolyl-acetylamino)-propionamide]	> 7.00	+++ (+++, >1000)
COc1ccc(NCCNC(=O)[C@H](Cc2ccc(-c3ccc(O)cc3)cc2)NC(=O)c2cccc(C)c2)cc1 [Compound 289, (S)-N-{2-(4′-Hydroxy-biphenyl-4-yl)-1-[2-(4-methoxy-phenylamino)-ethylcarbamoyl]-ethyl}-3-methyl-benzamide]	> 6.00	++ (++, >100)
